The source of these data is ChEMBL document CHEMBL1201862, “PubChem BioAssay data set” (2004).

Assay [1] deals with G-protein coupled receptor 55 (Homo sapiens, UniProt Q9Y2T6). The experiment in a line: selective activators of receptor GPR55 – imaging, U2OS cells, beta-arrestin-GFP redistribution, primary screen (AID 1961). The assay is classed as functional.
Assay [2] can be described thus: Luminescence Cell-Based Dose Retest to Confirm Inhibitors of Cancer Stem Cells. [Related pubchem assays (depositor defined):AID2717, AID2721]. The note with it: Homo sapiens. The assay is classed as functional.
The subject of the next assay is Streptococcus. The experiment in a line: GAS UMAA2166 growth inhibition – luminescence, BacTiterGlo, counter-screen for streptokinase expression inhibitor project, dose response (AID 1915).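 Also: potency for reduction of bacterial viability or growth.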 Type of assay: functional, organism-based. (A counterscreen serves to expose hits that act by an unwanted route or on another target.)
The next assay concerns the target T1, Streptokinase A (Streptococcus pyogenes serotype M1, UniProt P10520).
T1 sequence (P10520 whole entry): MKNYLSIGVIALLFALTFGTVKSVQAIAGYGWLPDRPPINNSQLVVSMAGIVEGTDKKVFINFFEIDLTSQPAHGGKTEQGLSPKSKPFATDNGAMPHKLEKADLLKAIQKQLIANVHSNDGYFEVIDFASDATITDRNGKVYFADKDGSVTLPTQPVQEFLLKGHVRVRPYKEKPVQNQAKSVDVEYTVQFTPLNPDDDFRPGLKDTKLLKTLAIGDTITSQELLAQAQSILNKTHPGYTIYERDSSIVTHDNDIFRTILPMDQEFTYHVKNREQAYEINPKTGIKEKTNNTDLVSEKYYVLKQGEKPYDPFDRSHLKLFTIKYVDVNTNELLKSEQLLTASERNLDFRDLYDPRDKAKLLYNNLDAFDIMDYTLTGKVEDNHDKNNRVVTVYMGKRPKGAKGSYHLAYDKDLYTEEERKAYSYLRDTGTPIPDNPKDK
The experiment in a line: viability-normalized secreted streptokinase activity reduction – plasminogen activation absorbance, OD405, dose response (AID 1914).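 Also: secreted streptokinase activity via plasminogen activation per viability signal from cell pellet.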 The assay is classed as functional, Streptococcus pyogenes M1 GAS.

Assay [3] has as its system Streptococcus sp. 'group A'. The experiment in a line: Streptococcus pyogenes SK(-)GAS viability under kanamycin – luminescence, BacTiterGlo, confirmation, counter-screen for streptokinase expression inhibitor project, dose response (AID 1900). The assay is classed as functional, organism-based.
In assay [4] the target is T2, Short transient receptor potential channel 4 (Mus musculus, UniProt Q9QUQ5).
T2 sequence (Q9QUQ5 whole entry): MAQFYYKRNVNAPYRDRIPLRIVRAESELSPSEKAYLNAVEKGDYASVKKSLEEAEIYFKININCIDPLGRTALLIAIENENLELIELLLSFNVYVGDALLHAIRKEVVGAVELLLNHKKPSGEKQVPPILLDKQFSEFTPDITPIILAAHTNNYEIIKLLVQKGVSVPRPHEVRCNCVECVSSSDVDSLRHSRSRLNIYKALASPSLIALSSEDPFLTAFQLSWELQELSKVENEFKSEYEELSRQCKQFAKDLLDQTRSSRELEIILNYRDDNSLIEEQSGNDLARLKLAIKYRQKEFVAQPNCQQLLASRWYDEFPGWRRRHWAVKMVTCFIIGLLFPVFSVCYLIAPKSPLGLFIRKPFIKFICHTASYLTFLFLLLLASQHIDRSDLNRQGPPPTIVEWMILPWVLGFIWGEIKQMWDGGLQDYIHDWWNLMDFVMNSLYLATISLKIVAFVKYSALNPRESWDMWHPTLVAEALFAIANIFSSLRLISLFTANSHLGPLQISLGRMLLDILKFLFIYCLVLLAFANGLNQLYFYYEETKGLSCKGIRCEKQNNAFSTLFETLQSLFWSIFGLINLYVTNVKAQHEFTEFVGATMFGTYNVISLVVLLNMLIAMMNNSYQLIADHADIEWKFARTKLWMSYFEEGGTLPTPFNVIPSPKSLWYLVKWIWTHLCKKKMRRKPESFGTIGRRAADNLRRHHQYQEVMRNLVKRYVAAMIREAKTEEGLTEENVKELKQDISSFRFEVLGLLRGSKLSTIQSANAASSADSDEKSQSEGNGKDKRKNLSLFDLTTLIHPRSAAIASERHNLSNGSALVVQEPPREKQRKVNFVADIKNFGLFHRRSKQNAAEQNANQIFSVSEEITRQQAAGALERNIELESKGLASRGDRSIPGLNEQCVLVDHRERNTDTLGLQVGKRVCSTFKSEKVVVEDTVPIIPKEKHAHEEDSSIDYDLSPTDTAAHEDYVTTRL
In words: block of DAMGO-driven TRPC4 calcium entry – cell-based, HEK293 TRPC4/mu-opioid, Fluo-4 calcium, dose response (AID 434942).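 Also: potency of inhibitors blocking the TRPC4 calcium response.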 Type of assay: functional.

Assay [5] addresses T3, Rac GTPase-activating protein 1 (Homo sapiens, UniProt Q9H0H5).
T3 sequence (Q9H0H5 whole entry): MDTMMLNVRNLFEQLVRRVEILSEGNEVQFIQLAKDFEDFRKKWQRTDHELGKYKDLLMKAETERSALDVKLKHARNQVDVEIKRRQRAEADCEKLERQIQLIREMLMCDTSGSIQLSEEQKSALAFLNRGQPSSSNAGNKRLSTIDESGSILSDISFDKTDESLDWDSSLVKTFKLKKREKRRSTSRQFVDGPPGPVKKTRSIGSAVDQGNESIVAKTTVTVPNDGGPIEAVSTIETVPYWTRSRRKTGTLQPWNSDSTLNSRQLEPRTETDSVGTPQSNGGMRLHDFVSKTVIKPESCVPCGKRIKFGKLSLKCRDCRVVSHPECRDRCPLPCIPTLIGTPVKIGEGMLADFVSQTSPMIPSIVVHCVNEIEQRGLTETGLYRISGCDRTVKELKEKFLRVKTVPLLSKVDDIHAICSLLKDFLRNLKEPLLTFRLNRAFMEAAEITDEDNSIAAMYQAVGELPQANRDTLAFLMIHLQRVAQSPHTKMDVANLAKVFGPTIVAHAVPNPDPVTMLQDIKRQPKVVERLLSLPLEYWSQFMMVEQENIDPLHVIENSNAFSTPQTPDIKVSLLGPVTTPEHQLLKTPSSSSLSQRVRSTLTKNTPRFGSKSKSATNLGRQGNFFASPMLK
The experiment in a line: blockers of MgcRacGAP-driven Rac1 GTP hydrolysis – biochemical, ADP Hunter fluorescence, primary and confirmatory, confirmation (AID 624330). Type of assay: functional.

The target in assay [6] is DNA dC->dU-editing enzyme APOBEC-3A (Homo sapiens, UniProt P31941). The experiment in a line: A3A deaminase inhibition for selectivity – biochemical, dose response (AID 504722). The assay is classed as functional.
Assay [7] deals with SWI/SNF-related matrix-associated actin-dependent regulator of chromatin subfamily A member 2 (Homo sapiens, UniProt P51531). In words: Luminescence-based cell-based high throughput dose response assay to identify activators of the function of SWI/SNF related, matrix associated, actin dependent regulator of chromatin, subfamily a, member 2 (SMARCA2, BRM). Type of assay: functional.

Assay [8] addresses DNA damage-inducible transcript 3 protein (Mus musculus, UniProt P35639). The assay is classed as functional, Cricetulus griseus.
For assay [9], the target named is Induced myeloid leukemia cell differentiation protein Mcl-1 (Homo sapiens, UniProt Q07820). The assay is classed as functional.
Assay [10] deals with DNA dC->dU-editing enzyme APOBEC-3G (Homo sapiens, UniProt Q9HC16). The experiment in a line: Dose Response confirmation of small molecule APOBEC3G DNA Deaminase Inhibitors via a fluorescence-based single-stranded DNA deaminase assay. [Related pubchem assays (depositor defined):AID493012, AID493028]. Type of assay: functional.
The nature of assay [11]: Counterscreen for activators of the function of SWI/SNF related, matrix associated, actin dependent regulator of chromatin, subfamily a, member 2 (SMARCA2, BRM): Luminescence-based cell-based high throughput dose response assay to identify non-selective compounds using the VP16 reporter assay. The assay is classed as functional.
Assay [12] has as its target T4, Mannose-6-phosphate isomerase (Homo sapiens, UniProt P34949).
T4 sequence (P34949 whole entry): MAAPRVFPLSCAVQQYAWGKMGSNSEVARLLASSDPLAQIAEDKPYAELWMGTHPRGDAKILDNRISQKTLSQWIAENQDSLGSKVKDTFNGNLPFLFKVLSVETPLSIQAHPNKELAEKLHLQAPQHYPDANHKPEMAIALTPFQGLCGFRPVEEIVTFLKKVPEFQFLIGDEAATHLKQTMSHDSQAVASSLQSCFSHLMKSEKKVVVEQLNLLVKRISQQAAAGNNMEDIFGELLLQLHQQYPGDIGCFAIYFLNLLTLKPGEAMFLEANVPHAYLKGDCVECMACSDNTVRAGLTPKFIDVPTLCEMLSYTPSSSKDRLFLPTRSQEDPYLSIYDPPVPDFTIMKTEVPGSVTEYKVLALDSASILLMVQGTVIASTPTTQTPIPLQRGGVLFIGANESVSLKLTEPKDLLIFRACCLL
In words: MPI enzyme activity inhibition – biochemical, fluorescence intensity, coupled assay, primary screen (AID 1209).

Assay [13] deals with T4, Mannose-6-phosphate isomerase. In words: MPI inhibition at elevated mannose 6-phosphate – biochemical, fluorescence intensity, high mannose 6-phosphate, primary screen (AID 1220).
For another assay, the target named is CAAX prenyl protease 2 (Saccharomyces cerevisiae S288c, UniProt Q03530). The assay is classed as biochemical.
For assay [14], the target named is T5, Delta-type opioid receptor (Homo sapiens, UniProt P41143). The experiment in a line: HTS Image-Based Screen for Agonists of the DOR Receptor. [Related pubchem assays (depositor defined):AID1777, AID1786, AID2133]. The assay is classed as functional.
Assay [15] addresses T6, Beta-galactosidase (Escherichia coli, UniProt Q8VNN2). The experiment in a line: detection-enzyme interference by beta-gal modulators – biochemical, E. coli enzyme, set 3, artefact control for CCR6 antagonist project, dose response (AID 504712). The assay is classed as functional.
For assay [16], the target named is T6, Beta-galactosidase. The assay is classed as functional.
The target of the next assay is Mu-type opioid receptor (Homo sapiens, UniProt P35372). The experiment in a line: HTS Image-Based Screen for Agonists of the MOR Receptor. [Related pubchem assays (depositor defined):AID1777, AID1785, AID1786, AID2133]. The assay is classed as functional.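 Also: imaging of beta-arrestin GFP recruitment into spots after receptor activation.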
For assay [17], the target named is T7, Kappa-type opioid receptor (Homo sapiens, UniProt P41145). Type of assay: functional.
Assay [18] addresses T5, Delta-type opioid receptor. The experiment in a line: HTS Image-Based Screen for Antagonists of the DOR Receptor. [Related pubchem assays (depositor defined):AID1777, AID1785, AID1786, AID2133]. Type of assay: functional.
The target of assay [19] is T7, Kappa-type opioid receptor. The assay is classed as functional. This is another data set of the same source.
For a further assay, the system named is H4. In words: Luminescence Cell-Based Dose Response HTS to Identify Activators of 5'UTR Stem-Loop Driven Prion Protein mRNA Translation in H4 Neuroglioblastoma Cells. [Related pubchem assays: 1829 (Project Summary), 1814 (Primary HTS)]. The assay is classed as functional. The conditions noted are these: Homo sapiens.
A further assay deals with Troponin, cardiac muscle (Homo sapiens, UniProt P19429+P45379+P63316). The experiment in a line: Fluorescence-based biochemical high throughput dose response assay for activators of the calcium sensitivity of cardiac Regulated Thin Filaments (RTF). [Related pubchem assays (depositor defined):AID493008, AID493018, AID504382, AID504383]. The assay is classed as protein-complex assay.

The nature of assay [20]: Luminescence Cell-Based Dose Response HTS to Identify Activators of Luciferase Translation or Activity in H4 […] Cells. [Related pubchem assays: 1829 (Project Summary), 1814 (Primary HTS)]. Type of assay: functional.
The target in assay [21] is Lysine-specific demethylase 4C (Homo sapiens, UniProt Q9H3R0). In words: inhibition of JMJD2C H3K9me3 demethylation – biochemical, DELFIA europium, cherry-picked samples, dose response (AID 488835). Type of assay: functional.

Structures are written as SMILES. Calls of active or inactive are those of the source. Bounds are passed on as bounds.

T6 sequence (Q8VNN2 whole entry): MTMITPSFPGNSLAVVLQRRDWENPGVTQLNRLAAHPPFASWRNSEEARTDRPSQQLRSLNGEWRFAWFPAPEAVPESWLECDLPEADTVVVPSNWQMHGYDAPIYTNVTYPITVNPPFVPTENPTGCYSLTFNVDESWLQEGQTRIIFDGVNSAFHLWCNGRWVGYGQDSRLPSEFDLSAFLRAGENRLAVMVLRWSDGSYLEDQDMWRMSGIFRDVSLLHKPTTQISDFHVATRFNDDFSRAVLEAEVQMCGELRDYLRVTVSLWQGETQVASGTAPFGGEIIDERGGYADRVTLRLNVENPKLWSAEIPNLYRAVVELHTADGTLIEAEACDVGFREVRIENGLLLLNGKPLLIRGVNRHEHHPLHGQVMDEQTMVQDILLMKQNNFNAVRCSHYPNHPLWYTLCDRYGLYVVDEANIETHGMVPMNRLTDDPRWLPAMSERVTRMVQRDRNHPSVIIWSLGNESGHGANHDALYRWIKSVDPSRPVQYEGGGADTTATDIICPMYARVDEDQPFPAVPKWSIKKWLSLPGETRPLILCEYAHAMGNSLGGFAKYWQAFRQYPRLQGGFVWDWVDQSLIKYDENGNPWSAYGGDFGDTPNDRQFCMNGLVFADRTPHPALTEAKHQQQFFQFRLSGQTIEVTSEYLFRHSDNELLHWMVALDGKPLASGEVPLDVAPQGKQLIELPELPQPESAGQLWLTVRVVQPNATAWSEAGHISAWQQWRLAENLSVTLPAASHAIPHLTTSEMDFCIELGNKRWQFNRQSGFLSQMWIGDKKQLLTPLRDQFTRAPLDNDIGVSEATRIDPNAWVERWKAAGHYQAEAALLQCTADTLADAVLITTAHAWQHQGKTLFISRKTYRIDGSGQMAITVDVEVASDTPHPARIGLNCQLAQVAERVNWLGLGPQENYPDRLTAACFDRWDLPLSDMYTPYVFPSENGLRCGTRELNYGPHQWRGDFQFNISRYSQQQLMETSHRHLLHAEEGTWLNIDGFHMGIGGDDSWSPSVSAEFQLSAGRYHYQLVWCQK
T7 sequence (P41145 whole entry): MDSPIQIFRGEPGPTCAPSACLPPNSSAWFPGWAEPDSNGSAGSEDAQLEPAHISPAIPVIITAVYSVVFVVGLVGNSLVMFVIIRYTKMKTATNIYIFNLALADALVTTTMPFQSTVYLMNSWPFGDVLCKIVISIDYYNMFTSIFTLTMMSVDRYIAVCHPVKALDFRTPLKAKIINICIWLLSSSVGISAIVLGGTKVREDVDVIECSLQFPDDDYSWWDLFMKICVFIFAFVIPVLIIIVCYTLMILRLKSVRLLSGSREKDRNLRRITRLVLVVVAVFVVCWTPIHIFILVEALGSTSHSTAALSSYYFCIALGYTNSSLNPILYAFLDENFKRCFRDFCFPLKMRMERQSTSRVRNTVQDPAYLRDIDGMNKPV
Chain of G-protein coupled receptor 55 (Q9Y2T6 whole entry): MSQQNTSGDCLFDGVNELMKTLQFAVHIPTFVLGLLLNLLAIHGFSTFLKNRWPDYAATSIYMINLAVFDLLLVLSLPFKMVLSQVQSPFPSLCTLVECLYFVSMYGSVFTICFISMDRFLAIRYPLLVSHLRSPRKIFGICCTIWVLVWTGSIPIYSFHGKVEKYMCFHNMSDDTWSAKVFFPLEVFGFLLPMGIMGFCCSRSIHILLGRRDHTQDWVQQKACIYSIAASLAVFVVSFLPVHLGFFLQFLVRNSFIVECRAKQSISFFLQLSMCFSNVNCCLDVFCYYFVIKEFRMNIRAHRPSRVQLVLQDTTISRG
T5 sequence (P41143 whole entry): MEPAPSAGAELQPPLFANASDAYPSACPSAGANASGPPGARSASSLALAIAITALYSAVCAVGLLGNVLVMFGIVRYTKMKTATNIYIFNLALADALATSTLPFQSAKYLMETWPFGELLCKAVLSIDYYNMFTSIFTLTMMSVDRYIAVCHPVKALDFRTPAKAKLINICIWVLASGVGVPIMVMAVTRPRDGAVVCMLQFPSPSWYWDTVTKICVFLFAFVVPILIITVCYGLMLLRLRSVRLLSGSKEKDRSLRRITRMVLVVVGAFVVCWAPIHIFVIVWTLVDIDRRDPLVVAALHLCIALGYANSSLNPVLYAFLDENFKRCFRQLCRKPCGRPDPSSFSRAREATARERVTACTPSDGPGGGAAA
Chain of DNA dC->dU-editing enzyme APOBEC-3G (Q9HC16 whole entry): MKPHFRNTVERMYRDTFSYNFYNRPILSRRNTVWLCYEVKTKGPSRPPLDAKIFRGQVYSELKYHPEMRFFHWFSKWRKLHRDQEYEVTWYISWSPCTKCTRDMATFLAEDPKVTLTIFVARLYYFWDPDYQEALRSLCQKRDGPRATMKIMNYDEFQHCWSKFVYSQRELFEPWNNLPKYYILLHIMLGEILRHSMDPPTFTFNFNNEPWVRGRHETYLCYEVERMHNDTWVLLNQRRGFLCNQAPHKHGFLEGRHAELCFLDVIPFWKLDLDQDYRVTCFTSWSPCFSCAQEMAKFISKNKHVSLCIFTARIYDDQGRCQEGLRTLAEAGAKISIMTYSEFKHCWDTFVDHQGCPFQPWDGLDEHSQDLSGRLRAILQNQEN
Chain of DNA dC->dU-editing enzyme APOBEC-3A (P31941 whole entry): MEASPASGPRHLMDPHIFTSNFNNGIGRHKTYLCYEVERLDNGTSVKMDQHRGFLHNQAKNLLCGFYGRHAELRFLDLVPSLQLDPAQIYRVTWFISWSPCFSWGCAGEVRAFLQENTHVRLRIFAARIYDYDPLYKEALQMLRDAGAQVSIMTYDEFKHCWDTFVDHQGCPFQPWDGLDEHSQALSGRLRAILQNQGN
Chain of Induced myeloid leukemia cell differentiation protein Mcl-1 (Q07820 whole entry): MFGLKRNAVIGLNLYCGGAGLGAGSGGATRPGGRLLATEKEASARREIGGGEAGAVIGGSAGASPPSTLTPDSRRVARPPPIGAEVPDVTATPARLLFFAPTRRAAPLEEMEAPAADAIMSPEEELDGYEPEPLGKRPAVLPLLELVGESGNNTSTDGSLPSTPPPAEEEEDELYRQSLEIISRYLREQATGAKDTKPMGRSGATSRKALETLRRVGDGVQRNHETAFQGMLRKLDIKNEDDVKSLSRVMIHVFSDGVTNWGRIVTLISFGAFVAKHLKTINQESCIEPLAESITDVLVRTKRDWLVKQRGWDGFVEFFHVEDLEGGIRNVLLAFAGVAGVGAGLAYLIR
Chain of DNA damage-inducible transcript 3 protein (P35639 whole entry): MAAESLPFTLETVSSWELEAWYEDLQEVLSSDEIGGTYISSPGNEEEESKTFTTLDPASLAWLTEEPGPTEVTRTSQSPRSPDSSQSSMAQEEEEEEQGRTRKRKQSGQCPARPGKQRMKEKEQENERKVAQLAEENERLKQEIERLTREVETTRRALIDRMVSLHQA
Chain of Mu-type opioid receptor (P35372 whole entry): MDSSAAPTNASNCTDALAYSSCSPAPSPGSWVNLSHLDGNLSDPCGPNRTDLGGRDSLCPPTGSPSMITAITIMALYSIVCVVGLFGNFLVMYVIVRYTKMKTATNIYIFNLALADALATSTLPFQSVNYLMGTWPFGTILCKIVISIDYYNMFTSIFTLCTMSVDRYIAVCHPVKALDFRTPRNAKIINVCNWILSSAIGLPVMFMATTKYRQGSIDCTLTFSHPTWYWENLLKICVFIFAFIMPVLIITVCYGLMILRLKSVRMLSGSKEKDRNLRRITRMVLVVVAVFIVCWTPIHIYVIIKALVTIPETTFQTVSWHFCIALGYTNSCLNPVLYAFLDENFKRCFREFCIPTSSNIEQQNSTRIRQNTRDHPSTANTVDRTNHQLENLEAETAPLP
Chain of CAAX prenyl protease 2 (Q03530 whole entry): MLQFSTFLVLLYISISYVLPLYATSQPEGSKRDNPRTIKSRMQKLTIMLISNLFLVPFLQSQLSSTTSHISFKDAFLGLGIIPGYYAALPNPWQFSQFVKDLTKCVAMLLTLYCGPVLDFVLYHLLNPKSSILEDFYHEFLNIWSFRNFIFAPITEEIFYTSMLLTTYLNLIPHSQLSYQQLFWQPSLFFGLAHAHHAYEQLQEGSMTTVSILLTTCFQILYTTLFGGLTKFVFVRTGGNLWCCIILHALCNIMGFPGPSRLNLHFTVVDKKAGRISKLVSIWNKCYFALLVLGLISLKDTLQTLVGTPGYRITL
Chain of Lysine-specific demethylase 4C (Q9H3R0 whole entry): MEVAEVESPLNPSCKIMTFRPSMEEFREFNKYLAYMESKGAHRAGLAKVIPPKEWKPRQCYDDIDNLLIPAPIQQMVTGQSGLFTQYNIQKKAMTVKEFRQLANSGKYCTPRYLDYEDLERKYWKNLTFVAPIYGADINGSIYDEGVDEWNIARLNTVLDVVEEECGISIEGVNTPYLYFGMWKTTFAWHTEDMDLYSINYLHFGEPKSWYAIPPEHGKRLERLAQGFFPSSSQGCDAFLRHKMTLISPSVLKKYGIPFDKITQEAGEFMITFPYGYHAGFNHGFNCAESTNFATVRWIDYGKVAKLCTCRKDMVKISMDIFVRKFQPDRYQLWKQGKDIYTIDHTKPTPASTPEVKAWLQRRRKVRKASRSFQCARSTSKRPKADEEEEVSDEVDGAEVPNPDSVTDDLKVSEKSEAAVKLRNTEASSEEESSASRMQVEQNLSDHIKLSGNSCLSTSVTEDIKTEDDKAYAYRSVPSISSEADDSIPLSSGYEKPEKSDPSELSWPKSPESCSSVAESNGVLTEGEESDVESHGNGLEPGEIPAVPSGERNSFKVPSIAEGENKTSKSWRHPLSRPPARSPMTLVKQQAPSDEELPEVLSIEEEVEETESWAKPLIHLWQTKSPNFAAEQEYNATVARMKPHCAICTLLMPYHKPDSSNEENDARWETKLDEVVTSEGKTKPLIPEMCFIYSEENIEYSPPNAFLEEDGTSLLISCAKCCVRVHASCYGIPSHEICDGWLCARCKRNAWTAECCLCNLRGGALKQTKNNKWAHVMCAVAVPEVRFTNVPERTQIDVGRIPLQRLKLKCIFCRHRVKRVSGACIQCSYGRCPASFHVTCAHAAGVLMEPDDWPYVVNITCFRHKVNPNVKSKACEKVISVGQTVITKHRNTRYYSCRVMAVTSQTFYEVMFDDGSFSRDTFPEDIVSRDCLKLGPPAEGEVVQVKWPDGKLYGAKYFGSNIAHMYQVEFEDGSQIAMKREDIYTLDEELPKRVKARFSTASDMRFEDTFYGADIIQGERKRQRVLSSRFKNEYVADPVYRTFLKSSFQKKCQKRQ

One may read the EC50 as the concentration giving half of the maximal effect. One may read the AC50 as the concentration giving half of the maximal activity seen. As to `CC(C)Cn1c(O)c(N=NC(=O)c2cccc(S(=O)(=O)N3CCCCC3)c2)c2ccccc21`, the EC50 in assay [1] was 4.75 µM (active); with Streptococcus it was 34.3 µM (active); on Streptokinase A, > 150 µM (not active); in [3], 5.53 µM (active). In assay [2], the AC50 was 20.5 µM (active).
As a reminder, the IC50 is the point on the concentration scale where inhibition reaches its midpoint. With `CC(=O)C1=C(S(=O)(=O)c2ccc(C)cc2)CS(=O)(=O)C1`, the EC50 was 4.73 µM (active) in [4], > 91.2 µM (inactive) in assay [7] and > 91.2 µM (inactive) in assay [11]. The IC50 in [5] is 34.3 µM (active); in assay [6], > 100 µM (inactive); in assay [9], 10.9 µM (active); in assay [10], 8.26 µM (active); in [12], 28.1 µM (active). In addition, the “Absolute IC50 (CHOP)” value in assay [8] was determined as 10 µM.
On to `OCCN(CCO)c1ccc2ccccc2c1`, for which the values for the IC50 in assay [5], in assay [13] and in assay [12] were 56.3 µM (active), > 50 µM (not active) and 21.3 µM (active), respectively. Also, the AC50 at CAAX prenyl protease 2 is 63.8 µM (active).
Turning to `O=C(NC(=S)N1CCN(c2ccc(Cl)cc2[N+](=O)[O-])CC1)c1cccs1`, the EC50 in [14] is > 32 µM (inactive); at Beta-galactosidase [16], > 31.5 µM (inactive); on Mu-type opioid receptor, > 32 µM (inactive); in the assay on Streptococcus it was 4.3 µM (active); in assay [3], 2.08 µM (active). For the same molecule, the IC50 on Beta-galactosidase [15] is > 66.6 µM (inactive); in assay [17] it was above 32 µM; in assay [18], > 32 µM (inactive); in [19], 12.3 µM (active).
For `Cc1c(C(=O)c2ccc(Cl)c(Cl)c2)cnc2cc3c(cc12)OCO3`, in assay [1], the EC50 was > 32 µM (inactive).
Take `CC(/C=N/Nc1ccc2nncn2n1)=C\c1ccccc1`: the EC50 in the assay on H4 is > 120 µM (not active); at Troponin, cardiac muscle, > 71.5 µM (inactive); in [20] it was 20.7 µM (active).
Consider `O=C(NCCCNCCCNC(=O)c1ccc(/C=N/O)nc1)c1ccc(/C=N/O)nc1`, for which, in assay [21], the AC50 is 18 µM (active).
